These are literature values, as cited in US11129865B2, “NEUPANEX®: neuroprotective, neuroregenerational, and neurogenesis supporting supplement combination” (priority 2017, dated 2021).

The test system of one data set is heme oxygenase-1. Conditions: astrocytes.
The test system of a further data set is heat shock protein 60. Conditions: astrocytes.
The conditions of data set [1]: rodents, increased dietary cholesterol.
For data set [2] the following is noted: supplementary dietary cholesterol.
In data set [3] the test system is IL-6 and IL-1 alpha and TNF-alpha.
For the next data set, the system named is hippocampal cell culture. The conditions noted are these: pretreatment, low to moderate concentration (10 nm-100 nm) in culture medium; voltage clamp and toxic NMDA insult.

`CC(=O)O[C@H](CC(=O)[O-])C[N+](C)(C)C` [acetyl-L-carnitine]: the “levels of heme oxygenase-1” value in the data set on heme oxygenase-1 was “increased levels of heme oxygenase-1 were induced in a dose- and time-dependent manner”. In the data set with heat shock protein 60, the “heat shock protein 60 expression” value is on record as “up-regulation of heat shock protein 60”.
As to `CC(C)CCC[C@@H](C)[C@H]1CC[C@H]2[C@@H]3CC=C4C[C@@H](O)CC[C@]4(C)[C@H]3CC[C@]12C` [cholesterol], the brain cholesterol result in data set [1] is on record as “dramatically increased brain cholesterol”. Also, in data set [2], the “autistic behaviors of children with SLOS” value is given as “reduced or even eliminated”.
Take Vitamin D: in data set [3], the “reduction in inflammatory cytokines IL-6, IL-1 alpha and TNF-alpha, concentration dependence” value is recorded as “lower concentrations of vitamin D were more effective than the higher concentrations”. The “neuroprotective effect compared to controls” value with hippocampal cell culture is recorded as “dramatic neuroprotective effect”. For the same compound, the “Increases IL-10” value with IL-10 is “Vitamin D: Increases IL-10 (43%), Decreases IL-6 & TNF-Alpha,”.
